This note sets out measurements from patent US7365088B2, “Indazole-derivatives as factor Xa inhibitors” (Sanofi-Aventis Deutschland GmbH, priority 2003, dated 2008).

Chain of human factor Xa (P00742 235-488 limits assumed): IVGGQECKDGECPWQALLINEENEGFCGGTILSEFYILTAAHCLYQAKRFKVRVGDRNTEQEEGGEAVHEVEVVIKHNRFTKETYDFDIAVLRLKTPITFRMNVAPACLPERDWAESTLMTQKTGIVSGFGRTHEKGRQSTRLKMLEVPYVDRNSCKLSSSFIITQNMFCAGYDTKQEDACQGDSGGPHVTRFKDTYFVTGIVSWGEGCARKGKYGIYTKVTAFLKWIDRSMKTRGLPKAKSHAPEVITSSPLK
Chain of human factor Xa (P00742 41-179 partner limits assumed): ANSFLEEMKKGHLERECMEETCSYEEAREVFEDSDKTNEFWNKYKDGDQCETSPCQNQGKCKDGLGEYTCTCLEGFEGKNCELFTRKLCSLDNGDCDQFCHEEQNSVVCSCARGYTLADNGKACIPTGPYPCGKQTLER

The assay has as its target human factor Xa (Homo sapiens, UniProt P00742). In words: Factor Xa assay (chromogenic, substrate S-2765).
For `COC(=O)c1ccc2c(c1)c(C(=O)NC1CCN(C(C)C)CC1)nn2Cc1cc(-c2ccc(Cl)s2)on1` [Example 1, 1-[5-(5-Chloro-thiophen-2-yl)-isoxazol-3-ylmethyl]-3-(1-isopropyl-piperidin-4-ylcarbamoyl)-1H-indazole-5-carboxylic acid methyl ester], the affinity corresponds to a Ki of 79 nM. This lies in the double-digit nanomolar range.
As to `COC(=O)c1ccc2c(C(=O)NC3CCN(C(C)C)CC3)nn(Cc3cc(-c4ccc(Cl)s4)on3)c2c1` [Example 2, 1-[5-(5-Chloro-thiophen-2-yl)-isoxazol-3-ylmethyl]-3-(1-isopropyl-piperidin-4-ylcarbamoyl)-1H-indazole-6-carboxylic acid methyl ester], affinity was put at a Ki of 35 nM.
To `COC(=O)c1cccc2c(C(=O)NC3CCN(C(C)C)CC3)nn(Cc3cc(-c4ccc(Cl)s4)on3)c12` [Example 3, 1-[5-(5-Chloro-thiophen-2-yl)-isoxazol-3-ylmethyl]-3-(1-isopropyl-piperidin-4-ylcarbamoyl)-1H-indazole-7-carboxylic acid methyl ester] belongs 17 nM; to `CC(C)N1CCC(NC(=O)c2nn(Cc3cc(-c4ccc(Cl)s4)on3)c3ccc(C(=O)O)cc23)CC1` [Example 4, 1-[5-(5-Chloro-thiophen-2-yl)-isoxazol-3-ylmethyl]-3-(1-isopropyl-piperidin-4-ylcarbamoyl)-1H-indazole-5-carboxylic acid], 18 nM.
The value for `CC(C)N1CCC(NC(=O)c2nn(Cc3cc(-c4ccc(Cl)s4)on3)c3cc(C(=O)O)ccc23)CC1` [Example 6, 1-[5-(5-Chloro-thiophen-2-yl)-isoxazol-3-ylmethyl]-3-(1-isopropyl-piperidin-4-ylcarbamoyl)-1H-indazole-6-carboxylic acid] was 212 nM.
The value for `CC(C)N1CCC(NC(=O)c2nn(CC(=O)Nc3ccc(Cl)cn3)c3ccccc23)CC1` [Example 7] was 86 nM; that for `CC(C)N1CCC(NC(=O)c2nn(Cc3cc(-c4ccc(Cl)s4)on3)c3ccccc23)CC1` [Example 8, 1-[5-(5-Chloro-thiophen-2-yl)-isoxazol-3-ylmethyl]-1H-indazole-3-carboxylic acid (1-isopropyl-piperidin-4-yl)-amide] was 6 nM; that for `CCOC(=O)OC(C)OC(=O)c1ccc2c(c1)c(C(=O)NC1CCN(C(C)C)CC1)nn2Cc1cc(-c2ccc(Cl)s2)on1` (stereo not drawn) [Example 9, 1-[5-(5-Chloro-thiophen-2-yl)-isoxazol-3-ylmethyl]-3-(1-isopropyl-piperidin-4-ylcarbamoyl)-1H-indazole-5-carboxylic acid 1-ethoxycarbonyloxy-ethyl ester] was 82 nM.
As for `CC(C)N1CCC(NC(=O)c2nn(Cc3cc(-c4ccc(Cl)s4)on3)c3cccc(C#N)c23)CC1` [Example 10, 1-[5-(5-Chloro-thiophen-2-yl)-isoxazol-3-ylmethyl]-4-cyano-1H-indazole-3-carboxylic acid (1-isopropyl-piperidin-4-yl)-amide], the Ki (as a rule, a dissociation constant, usually derived from enzyme kinetics or from competition with a known ligand) was found to be 9 nM. This Ki lies about 9.1-fold lower than the previous one.
In turn, `CC(C)N1CCC(NC(=O)c2nn(Cc3cc(-c4ccc(Cl)s4)on3)c3cccc(-c4noc(=O)[nH]4)c23)CC1` [Example 11, 1-[5-(5-Chloro-thiophen-2-yl)-isoxazol-3-ylmethyl]-4-(5-oxo-4,5-dihydro-[1,2,4]oxadiazol-3-yl)-1H-indazole-3-carboxylic acid (1-isopropyl-piperidin-4-yl)-amide] yielded a Ki of 7 nM.
The value for `CC(C)N1CCC(NC(=O)c2nn(Cc3cc(-c4ccc(Cl)s4)on3)c3ccc(C(=O)N4CCC4)cc23)CC1` [Example 12, 5-(Azetidine-1-carbonyl)-1-[5-(5-chloro-thiophen-2-yl)-isoxazol-3-ylmethyl]-1H-indazole-3-carboxylic acid (1-isopropyl-piperidin-4-yl)-amide] was 5 nM; that for `CC(C)N1CCC(NC(=O)c2nn(Cc3cc(-c4ccc(Cl)s4)on3)c3ccc(C(=O)NCCS(C)(=O)=O)cc23)CC1` [Example 13, 1-[5-(5-Chloro-thiophen-2-yl)-isoxazol-3-ylmethyl]-1H-indazole-3,5-dicarboxylic acid 3-[(1-isopropyl-piperidin-4-yl)-amide]5-[(2-methanesulfonyl-ethyl)-amide]] was 40 nM.
The value for `CC(C)N1CCC(NC(=O)c2nn(Cc3cc(-c4ccc(Cl)s4)on3)c3ccc(C(=O)NCCS(N)(=O)=O)cc23)CC1` [Example 14, 1-[5-(5-Chloro-thiophen-2-yl)-isoxazol-3-ylmethyl]-1H-indazole-3,5-dicarboxylic acid 3-[(1-isopropyl-piperidin-4-yl)-amide]5-[(2-sulfamoyl-ethyl)-amide]] was 28 nM; that for `CC(C)N1CCC(NC(=O)c2nn(Cc3cc(-c4ccc(Cl)s4)on3)c3ccc(C(=O)NCCN4CCOCC4)cc23)CC1` [Example 15, 1-[5-(5-Chloro-thiophen-2-yl)-isoxazol-3-ylmethyl]-1H-indazole-3,5-dicarboxylic acid 3-[(1-isopropyl-piperidin-4-yl)-amide]5-[(2-morpholin-4-yl-ethyl)-amide]] was 46 nM.
Compound `CC(C)N1CCC(NC(=O)c2nn(Cc3cc(-c4ccc(Cl)s4)on3)c3ccc(C(=O)NC[Si](C)(C)C)cc23)CC1` [Example 16, 1-[5-(5-Chloro-thiophen-2-yl)-isoxazol-3-ylmethyl]-1H-indazole-3,5-dicarboxylic acid 3-[(1-isopropyl-piperidin-4-yl)-amide]5-trimethylsilanylmethyl-amide] displayed a Ki of 54 nM.
The value for `CC(C)N1CCC(NC(=O)c2nn(Cc3cc(-c4ccc(Cl)s4)on3)c3ccc(C(=O)N(CCO)CCO)cc23)CC1` [Example 17, 1-[5-(5-Chloro-thiophen-2-yl)-isoxazol-3-ylmethyl]-1H-indazole-3,5-dicarboxylic acid 5-[bis-(2-hydroxy-ethyl)-amide]3-[(1-isopropyl-piperidin-4-yl)-amide]] was 30 nM; that for `CC(C)N1CCC(NC(=O)c2nn(Cc3cc(-c4ccc(Cl)s4)on3)c3ccc(C(=O)N(C)CCO)cc23)CC1` [Example 18, 1-[5-(5-Chloro-thiophen-2-yl)-isoxazol-3-ylmethyl]-1H-indazole-3,5-dicarboxylic acid 5-[(2-hydroxy-ethyl)-methyl-amide]3-[(1-isopropyl-piperidin-4-yl)-amide]] was 13 nM; that for `CCOC(=O)CNC(=O)c1ccc2c(c1)c(C(=O)NC1CCN(C(C)C)CC1)nn2Cc1cc(-c2ccc(Cl)s2)on1` [Example 19, {[1-[5-(5-Chloro-thiophen-2-yl)-isoxazol-3-ylmethyl]-3-(1-isopropyl-piperidin-4-ylcarbamoyl)-1H-indazole-5-carbonyl]-amino}-acetic acid ethyl ester] was 26 nM.
For the compound `CC(C)N1CCC(NC(=O)c2nn(Cc3cc(-c4ccc(Cl)s4)on3)c3ccc(C(=O)NCC(F)F)cc23)CC1` [Example 20, 1-[5-(5-Chloro-thiophen-2-yl)-isoxazol-3-ylmethyl]-1H-indazole-3,5-dicarboxylic acid 5-[(2,2-difluoro-ethyl)-amide]3-[(1-isopropyl-piperidin-4-yl)-amide]], the Ki is 47 nM.
To `CC(C)N1CCC(NC(=O)c2nn(Cc3cc(-c4ccc(Cl)s4)on3)c3ccc(C(=O)NCC(N)=O)cc23)CC1` [Example 21, 1-[5-(5-Chloro-thiophen-2-yl)-isoxazol-3-ylmethyl]-1H-indazole-3,5-dicarboxylic acid 5-carbamoylmethyl-amide 3-[(1-isopropyl-piperidin-4-yl)-amide]] belongs 33 nM; to `CC(C)N1CCC(NC(=O)c2nn(Cc3cc(-c4ccc(Cl)s4)on3)c3ccc(C(=O)NCCO)cc23)CC1` [Example 22, 1-[5-(5-Chloro-thiophen-2-yl)-isoxazol-3-ylmethyl]-1H-indazole-3,5-dicarboxylic acid 5-[(2-hydroxy-ethyl)-amide]3-[(1-isopropyl-piperidin-4-yl)-amide]], 28 nM; to `CC(C)N1CCC(NC(=O)c2nn(Cc3cc(-c4ccc(Cl)s4)on3)c3ccc(C(=O)NCCN4CCNC4=O)cc23)CC1` [Example 23, 1-[5-(5-Chloro-thiophen-2-yl)-isoxazol-3-ylmethyl]-1H-indazole-3,5-dicarboxylic acid 3-[(1-isopropyl-piperidin-4-yl)-amide]5-{[2-(2-oxo-imidazolidin-1-yl)-ethyl]-amide}], 33 nM.
`CC(C)N1CCC(NC(=O)c2nn(Cc3cc(-c4ccc(Cl)s4)on3)c3ccc(C(=O)NC(C)(CO)CO)cc23)CC1` [Example 24, 1-[5-(5-Chloro-thiophen-2-yl)-isoxazol-3-ylmethyl]-1H-indazole-3,5-dicarboxylic acid 5-[(2-hydroxy-1-hydroxymethyl-1-methyl-ethyl)-amide]3-[(1-isopropyl-piperidin-4-yl)-amide]] gave a Ki of 51 nM.
As to `CC(C)N1CCC(NC(=O)c2nn(Cc3cc(-c4ccc(Cl)s4)on3)c3ccc(C(=O)NCC(=O)O)cc23)CC1` [Example 25, {[1-[5-(5-Chloro-thiophen-2-yl)-isoxazol-3-ylmethyl]-3-(1-isopropyl-piperidin-4-ylcarbamoyl)-1H-indazole-5-carbonyl]-amino}-acetic acid], the affinity, expressed as Ki, was 14 nM.
The value for `CC(C)N1CCC(NC(=O)c2nn(Cc3cc(-c4ccc(Cl)s4)on3)c3ccc(C(=O)N4CC[C@H]4C(=O)O)cc23)CC1` [Example 26, 1-[1-[5-(5-Chloro-thiophen-2-yl)-isoxazol-3-ylmethyl]-3-(1-isopropyl-piperidin-4-ylcarbamoyl)-1H-indazole-5-carbonyl]-(2S)-azetidine-2-carboxylic acid] was 17 nM; that for `CC(C)N1CCC(NC(=O)c2nn(Cc3cc(-c4ccc(Cl)s4)on3)c3ccc(C(=O)NCC(F)(F)F)cc23)CC1` [Example 27, 1-[5-(5-Chloro-thiophen-2-yl)-isoxazol-3-ylmethyl]-1H-indazole-3,5-dicarboxylic acid 3-[(1-isopropyl-piperidin-4-yl)-amide]5-[(2,2,2-trifluoro-ethyl)-amide]] was 39 nM; that for `CC(C)N1CCC(NC(=O)c2nn(Cc3cc(-c4ccc(Cl)s4)on3)c3ccc(C(=O)N(C)CC(=O)O)cc23)CC1` [Example 28, {[1-[5-(5-Chloro-thiophen-2-yl)-isoxazol-3-ylmethyl]-3-(1-isopropyl-piperidin-4-ylcarbamoyl)-1H-indazole-5-carbonyl]-methyl-amino}-acetic acid] was 15 nM.
